pIC50: −log10 of the molar value.
What was measured:
[1] = system: PC3 (human prostate cancer cells); assay: MTT cytotoxicity, PC3 cells; assay type: cell-based; conditions: 72 h exposure, three independent experiments, read-out: Cytotoxic activity IC50 (95% CI) PC3
Method: (§1) Compounds were evaluated for antitumor activity in cell culture in vitro using several human cancer cell lines obtained from the National Cancer Institute, NCI (Bethesda, MD, USA). […] The L929 cells were cultivated under standard conditions in DMEM with Earle’s salts. […] At the end of the incubation time (72 h), the plates were centrifuged and the medium was replaced by fresh medium (200 μL) containing 0.5 mg/mL MTT. After 3 h, the MTT formazan product was dissolved in DMSO (150 μL) and the absorbance was measured using a multiplate reader (Spectra Count, Packard, ON, Canada). The impact of compounds on cell proliferation was quantified as the percentage of control absorbance of the reduced dye at 550 nm. All cell culture based studies were performed in triplicate. All cells were mycoplasma-free.

[2] = system: L929 (murine fibroblasts normal cells); assay: MTT cytotoxicity, L929 normal cells; assay type: cell-based, mouse; conditions: normal cell line, 72 h exposure, three independent experiments, read-out: Cytotoxic activity IC50 (95% CI) L929
Method: as §1

[3] = system: HL-60 (human promyelocytic leukemia cells); assay: MTT cytotoxicity, HL-60 cells; assay type: cell-based; conditions: 72 h exposure, three independent experiments, read-out: Cytotoxic activity IC50 (95% CI) HL-60
Method: as §1

[4] = system: SF295 (human glioblastoma cells); assay: MTT cytotoxicity, SF295 cells; assay type: cell-based; conditions: 72 h exposure, three independent experiments, read-out: Cytotoxic activity IC50 (95% CI) SF295
Method: as §1

[5] = system: NCIH-460 (human lung cells); assay: MTT cytotoxicity, NCIH-460 cells; assay type: cell-based; conditions: 72 h exposure, three independent experiments, read-out: Cytotoxic activity IC50 (95% CI) NCIH-460
Method: as §1

[6] = system: HCT-116 (human colon carcinoma cells); assay: MTT cytotoxicity, HCT-116 cells; assay type: cell-based; conditions: 72 h exposure, three independent experiments, read-out: Cytotoxic activity IC50 (95% CI) HCT-116
Method: as §1

In the case of “3-Bromo-2,2-dimethyl-4-(4-((p-tolylselanyl)methyl)-1H-1,2,3-triazol-1-yl)-3,4-dihydro-2H-benzo[h]-chromene-5,6-dione [Compound 21]”, the pIC50 [1] was 5.75, the pIC50 [2] was 5.89 and the pIC50 [3] was 6.00. It also gave a pIC50 [4] of 5.79, a pIC50 [5] of 5.83 and a pIC50 [6] of less than 5.10.

Source: publication PMC6017932, “Synthesis of Selenium-Quinone Hybrid Compounds with Potential Antitumor Activity via Rh-Catalyzed C-H Bond Activation and Click Reactions” (Molecules : A Journal of Synthetic Chemistry and Natural …, 2017)
